Experimental data published in paper PMC7243741 (Bioorganic & medicinal chemistry letters, 2019).

Legend:
[1] = test system: PPARγ phosphorylation at S273; type: cell-based, mouse; conditions: 3T3-L1 differentiated adipocytes, in the presence of TNFα, compounds at 10 μM, Western blot with pSer273-specific antibody
[2] = biological target: T1, GST-tagged PPARγ ligand-binding domain (PPARγ LBD) (Homo sapiens, UniProt P37231); test: In vitro competition binding assay
T1 sequence (P37231 238-503 limits assumed): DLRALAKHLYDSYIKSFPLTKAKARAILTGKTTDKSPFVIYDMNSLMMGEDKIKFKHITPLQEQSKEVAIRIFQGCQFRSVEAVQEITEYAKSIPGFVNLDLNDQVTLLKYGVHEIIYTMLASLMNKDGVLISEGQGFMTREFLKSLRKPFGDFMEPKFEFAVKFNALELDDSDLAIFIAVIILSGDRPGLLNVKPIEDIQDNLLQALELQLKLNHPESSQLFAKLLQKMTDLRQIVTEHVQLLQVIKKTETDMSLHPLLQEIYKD

[3] = biological target: T1, GST-tagged PPARγ ligand-binding domain (PPARγ LBD); test: biochemical
[4] = test system: 3T3-L1 cells; test: Oil Red O staining of 3T3-L1 adipocyte differentiation; type: cell-based, mouse; conditions: 3T3-L1 in differentiation media, compounds at 10 μM

`COc1cc(CNC(=O)c2ccc3c(c2)c(C)c(C)n3Cc2ccc(-c3ccccc3C(=O)O)cc2)ccc1O` [Compound 2e, 4’-((5-((4-Hydroxy-3-methoxybenzyl)carbamoyl)-2,3-dimethyl-1H-indol-1-yl)methyl)-[1,1’-biphenyl]-2-carboxylic acid] was tested, and the “Inhibition of PPARγ S273 phosphorylation” value [1] was “significantly inhibited” and the “fold improvement in PPARγ binding potency compared to parental compound UHC1” value ([2]; ratio of IC50 vs UHC1) was “over 30 fold”.
Work on `Cc1cc(C(=O)NCc2cccc(O)c2)ccc1NCc1ccc(-c2ccccc2C(=O)O)cc1` [Compound 5, 4’-(((4-((3-Hydroxybenzyl)carbamoyl)-2-methylphenyl)amino)methyl)-[1,1’-biphenyl]-2-carboxylic acid] yielded a Ki [3] of 254 nM and an IC50 [2] of 325 nM.
With `Cc1c(C)n(Cc2ccc(-c3ccccc3C(=O)O)cc2)c2ccc(C(=O)NCc3cccnc3)cc12` [UHC1, reference compound] the “Inhibition of PPARγ S273 phosphorylation” value [1] was “significantly inhibited” and the “Adipocyte differentiation (Oil Red O staining of lipid droplets)” value [4] was “significantly reduced Oil Red O staining”.
